Laboratory results published in patent US20230183678A1, “IN-CELL CONTINUOUS TARGET-GENE EVOLUTION, SCREENING AND SELECTION” (COMMISSARIAT À L'ENERGIE ATOMIQUE ET AUX ENERGIES …, priority 2020, published 2023).

B1: cI-PDZ (DBD-target fusion) (other)
chain: MSTKKKPLTQEQLEDARRLKAIYEKKKNELGLSQESVADKMGMGQSGVGALFNGINALNAYNAALLAKILKVSVEEFSPSIAREIYEMYEAVSMQPSLRSEYEYPVFSHVQAGMFSPELRTFTKGDAERWVSTTKKASDSAFWLEVEGNSMTAPTGSKPSFPDGMLILVDPEQAVEPGDFCIARLGGDEFTFKKLIRDSGQVFLQPLNPQYPMIPCNESCSVVGKVIASQWPEETFGAAALGEEDIPREPRRIVIHRGSTGLGFNIVGGEDGEGIFISFILAGGPADLSGELRKGDQILSVNGVDLRNASHEQAAIALKNAGQTVTIIAQYKPEEYSRFEAK
notes: Expressed in E. coli BL21(DE3) Star or Acella cells from plasmid VN419

Key:
PDZ = target: T1, PDZ (Homo sapiens, UniProt P78352); settings: cI-PDZ/rpoA-CRIPT pair; read-out: affinity; cited from earlier work
T1 construct: expressed in transfected cells; host or cells: E. coli BL21(DE3) Star or Acella, plasmid VN419

[1] = target: T2, rpoA-stop (premature stop codon resulting in no fusion peptide) (UniProt P0A7Z4 1-248, limits assumed); experiment: bacterial two-hybrid coupled to Bxb1 DNA invertase; sequencing of colonies showed no inversion
T2 construct: also called VN376
T2 sequence (P0A7Z4 1-248 limits assumed): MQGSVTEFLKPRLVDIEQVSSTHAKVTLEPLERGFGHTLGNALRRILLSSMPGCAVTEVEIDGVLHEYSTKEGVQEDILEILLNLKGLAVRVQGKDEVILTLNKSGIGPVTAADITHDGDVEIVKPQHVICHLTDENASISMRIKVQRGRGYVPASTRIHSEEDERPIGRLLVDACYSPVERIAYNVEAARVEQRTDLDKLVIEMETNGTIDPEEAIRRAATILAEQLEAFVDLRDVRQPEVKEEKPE

| Molecule | Kd (PDZ) [nM] | binding result [1] |
| --- | --- | --- |
| CRIPT [rpoA-CRIPT] | 800 |  |
| B1 |  | no binding |
